# Structures can show the parent of a compound that is named as a salt.
# Legend:
# [1] = Shelf-life (t 90%) forecast of doxorubicin.HCl 2 mg/ml 0.9% sodium chloride solution adjusted to pH 3.0; assay type: physicochemical; conditions: for Kobs × 10^3: observed
# Procedure: The Arrhenius equation for the degradation process was calculated from the Kobs obtained from the different temperatures taken in account for the testing (table 13).
# [2] = pH-stability profile at 55° C. of doxorubicin.HCl solutions in sterile water, 5% dextrose, 0.9% saline; assay type: physicochemical
# [3] = 0.9% NaCl pH 3.0, 27° C., Arrhenius
# [4] = 0.9% sodium chloride pH 3.0, 35° C., 0 days
# [5] = 0.9% sodium chloride pH 3.0, 35° C., 8 days
# [6] = 0.9% sodium chloride pH 3.0, 35° C., 14 days
# [7] = 0.9% sodium chloride pH 3.0, 35° C., 21 days
# [8] = 0.9% sodium chloride pH 3.0, 35° C., 28 days
# [9] = 0.9% sodium chloride pH 3.0, 45° C., 0 days
# [10] = 0.9% sodium chloride pH 3.0, 45° C., 4 days
# [11] = 0.9% sodium chloride pH 3.0, 45° C., 8 days
# [12] = 0.9% sodium chloride pH 3.0, 45° C., 21 days
# [13] = 0.9% sodium chloride pH 3.0, 55° C., 0 days
# [14] = 0.9% sodium chloride pH 3.0, 55° C., 11 days
# [15] = 0.9% sodium chloride pH 3.0, 60° C., 0 days
# [16] = 0.9% sodium chloride pH 3.0, 60° C., 1 day
# [17] = 0.9% sodium chloride pH 3.0, 60° C., 3 days
smiles,measurement,setting,value
"COc1cccc2c1C(=O)c1c(O)c3c(c(O)c1C2=O)C[C@@](O)(C(=O)CO)C[C@@H]3O[C@H]1C[C@H](N)[C@H](O)[C@H](C)O1 [Doxorubicin.HCl, doxorubicin hydrochloride]",commercially meaningful shelf-life (t90% forecasts),[1]; 2 mg/ml pH 3.0 in 0.9% sodium chloride,only if the product is stored in a refrigerator
same,K × 10^3 calculated,"[1]; 0.9% NaCl pH 3.0, 4° C., Arrhenius",0.017 1/days
same,K × 10^3 calculated,"[1]; 0.9% NaCl pH 3.0, 8° C., Arrhenius",0.037 1/days
same,K × 10^3 calculated,"[1]; 0.9% NaCl pH 3.0, 15° C., Arrhenius",0.137 1/days
same,K × 10^3 calculated,[1]; [3],1.112 1/days
same,t90%,[1]; [3],94 days
same,Kobs × 10^3,"[1]; 0.9% NaCl pH 3.0, 35° C.",3.89 1/days
same,Kobs × 10^3,"[1]; 0.9% NaCl pH 3.0, 45° C.",21.61 1/days
same,Kobs × 10^3,"[1]; 0.9% NaCl pH 3.0, 55° C.",75.90 1/days
same,Kobs × 10^3,"[1]; 0.9% NaCl pH 3.0, 60° C.",164.90 1/days
same,Doxorubicin.HCl assay,[1]; [4],2.061 mg/mL
same,pH,[1]; [4],3.05
same,Doxorubicin.HCl assay,[1]; [5],2.045 mg/mL
same,pH,[1]; [5],2.98
same,Doxorubicin.HCl assay,[1]; [6],1.946 mg/mL
same,pH,[1]; [6],2.92
same,Doxorubicin.HCl assay,[1]; [7],1.932 mg/mL
same,pH,[1]; [7],2.92
same,Doxorubicin.HCl assay,[1]; [8],1.852 mg/mL
same,pH,[1]; [8],2.98
same,Doxorubicin.HCl assay,[1]; [9],2.061 mg/mL
same,pH,[1]; [9],3.05
same,Doxorubicin.HCl assay,[1]; [10],1.996 mg/mL
same,pH,[1]; [10],2.98
same,Doxorubicin.HCl assay,[1]; [11],1.724 mg/mL
same,pH,[1]; [11],2.97
same,pH,"[1]; 0.9% sodium chloride pH 3.0, 45° C., 14 days",2.98
same,Doxorubicin.HCl assay,[1]; [12],1.344 mg/mL
same,pH,[1]; [12],2.93
same,Doxorubicin.HCl assay,[1]; [13],2.061 mg/mL
same,pH,[1]; [13],3.05
same,pH,"[1]; 0.9% sodium chloride pH 3.0, 55° C., 4 days",2.90
same,pH,"[1]; 0.9% sodium chloride pH 3.0, 55° C., 8 days",2.97
same,Doxorubicin.HCl assay,[1]; [14],0.900 mg/mL
same,pH,[1]; [14],2.95
same,Doxorubicin.HCl assay,[1]; [15],2.061 mg/mL
same,pH,[1]; [15],3.05
same,Doxorubicin.HCl assay,[1]; [16],1.742 mg/mL
same,pH,[1]; [16],2.97
same,pH,"[1]; 0.9% sodium chloride pH 3.0, 60° C., 2 days",2.96
same,Doxorubicin.HCl assay,[1]; [17],1.290 mg/mL
same,pH,[1]; [17],2.98
same,pH,"[1]; 0.9% sodium chloride pH 3.0, 60° C., 4 days",2.96
same,pH range of maximum stability,"[2]; 2 mg/ml, 55° C., all three media, ±0.2",3.0-3.5
same,Kobs × 10^3,"[2]; 0.9% saline, Acetate pH 4.0, 55° C.",215.7 1/days
same,Kobs × 10^3,"[2]; 0.9% saline, Acetate pH 5.0, 55° C.",301.2 1/days
same,Kobs × 10^3,"[2]; 0.9% saline, Acetate pH 5.5, 55° C.",430.3 1/days
same,Kobs × 10^3,"[2]; 0.9% saline, Formate pH 3.5, 55° C.",148.1 1/days
same,Kobs × 10^3,"[2]; 0.9% saline, Glycine-HCl pH 2.0, 55° C.",362.4 1/days
same,Kobs × 10^3,"[2]; 0.9% saline, Glycine-HCl pH 2.5, 55° C.",276.5 1/days
same,Kobs × 10^3,"[2]; 0.9% saline, Glycine-HCl pH 3.0, 55° C.",133.2 1/days
same,Doxorubicin.HCl % stability,"[2]; 0.9% saline, pH 2.5 buffer, 55° C., 0 hours",100.0%
same,Doxorubicin.HCl % stability,"[2]; 0.9% saline, pH 2.5 buffer, 55° C., 16 hours",85.8%
same,Doxorubicin.HCl % stability,"[2]; 0.9% saline, pH 2.5 buffer, 55° C., 24 hours",82.3%
same,Doxorubicin.HCl % stability,"[2]; 0.9% saline, pH 2.5 buffer, 55° C., 34 hours",70.3%
same,Doxorubicin.HCl % stability,"[2]; 0.9% saline, pH 2.5 buffer, 55° C., 48 hours",58.1%
same,Doxorubicin.HCl % stability,"[2]; 0.9% saline, pH 3.0 buffer, 55° C., 0 hours",100.0%
same,Doxorubicin.HCl % stability,"[2]; 0.9% saline, pH 3.0 buffer, 55° C., 16 hours",91.2%
same,Doxorubicin.HCl % stability,"[2]; 0.9% saline, pH 3.0 buffer, 55° C., 24 hours",88.8%
same,Doxorubicin.HCl % stability,"[2]; 0.9% saline, pH 3.0 buffer, 55° C., 48 hours",78.8%
same,Doxorubicin.HCl % stability,"[2]; 0.9% saline, pH 3.0 buffer, 55° C., 72 hours",69.0%
same,Doxorubicin.HCl % stability,"[2]; 0.9% saline, pH 3.0 buffer, 55° C., 96 hours",60.4%
same,Doxorubicin.HCl % stability,"[2]; 0.9% saline, pH 3.0 buffer, 55° C., 120 hours",50.3%
same,Doxorubicin.HCl % stability,"[2]; 0.9% saline, pH 3.5 buffer, 55° C., 0 hours",100.0%
same,Doxorubicin.HCl % stability,"[2]; 0.9% saline, pH 3.5 buffer, 55° C., 16 hours",91.4%
same,Doxorubicin.HCl % stability,"[2]; 0.9% saline, pH 3.5 buffer, 55° C., 24 hours",87.2%
same,Doxorubicin.HCl % stability,"[2]; 0.9% saline, pH 3.5 buffer, 55° C., 48 hours",77.3%
same,Doxorubicin.HCl % stability,"[2]; 0.9% saline, pH 3.5 buffer, 55° C., 96 hours",58.9%
same,Doxorubicin.HCl % stability,"[2]; 0.9% saline, pH 3.5 buffer, 55° C., 120 hours",46.0%
same,Kobs × 10^3,"[2]; 5% dextrose, Acetate pH 4.0, 55° C.",209.7 1/days
same,Kobs × 10^3,"[2]; 5% dextrose, Acetate pH 5.0, 55° C.",273.1 1/days
same,Kobs × 10^3,"[2]; 5% dextrose, Acetate pH 5.5, 55° C.",453.7 1/days
same,Kobs × 10^3,"[2]; 5% dextrose, Formate pH 3.5, 55° C.",132.0 1/days
same,Kobs × 10^3,"[2]; 5% dextrose, Glycine-HCl pH 2.0, 55° C.",323.8 1/days
same,Kobs × 10^3,"[2]; 5% dextrose, Glycine-HCl pH 2.5, 55° C.",138.7 1/days
same,Kobs × 10^3,"[2]; 5% dextrose, Glycine-HCl pH 3.0, 55° C.",100.5 1/days
same,Doxorubicin.HCl % stability,"[2]; 5% dextrose, pH 2.0 buffer, 55° C., 0 hours",100.0%
same,Doxorubicin.HCl % stability,"[2]; 5% dextrose, pH 2.0 buffer, 55° C., 8 hours",92.8%
same,Doxorubicin.HCl % stability,"[2]; 5% dextrose, pH 2.0 buffer, 55° C., 16 hours",84.4%
same,Doxorubicin.HCl % stability,"[2]; 5% dextrose, pH 2.0 buffer, 55° C., 24 hours",75.9%
same,Doxorubicin.HCl % stability,"[2]; 5% dextrose, pH 2.0 buffer, 55° C., 34 hours",68.3%
same,Doxorubicin.HCl % stability,"[2]; 5% dextrose, pH 2.0 buffer, 55° C., 48 hours",54.1%

# Source: patent US6632799B2, “Injectable ready-to-use solutions containing an antitumor anthracycline glycoside” (Pharmacia & Upjohn Company, priority 1985, dated 2003)
